Active and inactive are the calls of the source. No cut-off for these calls is given here.
Columns and labels:
[1] = Toxicity in NSG mouse xenografted with human NCI-H1975 cells assessed as abnormal behavior at 50 mg/kg,ip measured after 6 weeks; type: organism-based; details: in vivo, 1008 h
[2] = target: Heat shock protein HSP90 (Homo sapiens) (UniProt P07900+P08238); experiment: Inhibition of HSP90 in human NCI-H1975 cells assessed as downregulation of CDK-4 expression at 2 uM incubated for 24 hrs by western blot analysis; type: cell-based
[3] = target: T1, Histone deacetylase 7 (Homo sapiens, UniProt Q8WUI4); experiment: Inhibition of HDAC7 (unknown origin) using fluorogenic substrate incubated for 30 mins by fluorescence plate reader
T1 sequence (Q8WUI4 whole entry): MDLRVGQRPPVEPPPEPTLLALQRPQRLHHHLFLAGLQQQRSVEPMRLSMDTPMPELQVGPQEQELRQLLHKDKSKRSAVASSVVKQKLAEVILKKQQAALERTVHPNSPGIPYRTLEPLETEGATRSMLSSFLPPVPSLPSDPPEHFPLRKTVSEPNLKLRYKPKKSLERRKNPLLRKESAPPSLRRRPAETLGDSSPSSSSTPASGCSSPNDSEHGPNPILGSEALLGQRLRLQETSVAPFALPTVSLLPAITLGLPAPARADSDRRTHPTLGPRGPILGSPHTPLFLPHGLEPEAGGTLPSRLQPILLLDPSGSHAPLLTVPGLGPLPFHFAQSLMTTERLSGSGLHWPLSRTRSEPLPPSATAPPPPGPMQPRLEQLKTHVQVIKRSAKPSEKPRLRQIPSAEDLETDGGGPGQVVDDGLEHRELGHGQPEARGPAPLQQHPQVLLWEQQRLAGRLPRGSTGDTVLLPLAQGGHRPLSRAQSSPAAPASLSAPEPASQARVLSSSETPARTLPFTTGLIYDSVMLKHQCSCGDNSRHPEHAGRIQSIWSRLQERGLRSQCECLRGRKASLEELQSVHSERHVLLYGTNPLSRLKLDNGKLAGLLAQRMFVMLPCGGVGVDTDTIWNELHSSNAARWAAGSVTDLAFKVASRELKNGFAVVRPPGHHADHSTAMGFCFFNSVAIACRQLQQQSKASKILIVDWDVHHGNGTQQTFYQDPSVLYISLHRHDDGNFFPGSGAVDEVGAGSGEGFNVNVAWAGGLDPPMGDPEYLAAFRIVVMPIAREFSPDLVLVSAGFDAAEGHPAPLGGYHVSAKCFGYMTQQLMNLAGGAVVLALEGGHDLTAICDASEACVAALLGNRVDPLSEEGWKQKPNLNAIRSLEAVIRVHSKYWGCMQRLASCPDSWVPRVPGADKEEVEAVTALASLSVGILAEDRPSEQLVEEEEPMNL

inhibition [2]: Active
IC50 [3]: 1.69 µM
Structure (SMILES): CC(C)c1cc(C(=O)N(C)Cc2ccc(C(=O)NO)cc2)c(O)cc1O
Activity [1]: Non-Toxic

From ChEMBL document CHEMBL5113492, “Design, synthesis, and biological evalution of bifunctional inhibitors against Hsp90-HDAC6 interplay” (Eur J Med Chem, 2022)
